Here are results for 3 molecules from patent publication US10857228B2, “Adjuvant for vaccines, vaccine, and immunity induction method” (The University of Tokyo, priority 2015, dated 2020).

The test system of one assay is CD57BL/6 mice. The assay is described as follows: IgA induction by spleen cDCs stimulated with OVA, CpG ODN and GM-CSF, intraperitoneally administered to mice. The format is in vivo. The note with it: spleen cDCs stimulated 24 hours with OVA 100 μg/ml and adjuvant, given i.p. Day 0 and Day 14; oral OVA Day 21 to 25; ELISA Day 32. The protocol: Spleen cDCs were stimulated for 24 hours using ovalbumin (OVA; 100 μg/ml) as an antigen and CpG ODN 1668 (1 μg/ml) only or the combination of CpG ODN and GM-CSF (10 ng/ml) as an adjuvant.
Here, the fractioning of murine small intestine mucosa lamina propria cells with the dendritic cell marker CD11c and the macrophage marker CD11b produces the 4 groups: R1 (dendritic cells) (CD11c high CD11b low), R2 (dendritic cells) (CD11c high CD11b high), R3 (macrophages) (CD11c int CD11b int), R4 (acidophiles) (CD11c int CD11b high). The R2 dendritic cells specifically express Raldh2 and induce the Th17 response and the IgA production (Non-Patent Literature 1). Therefore, the R2 dendritic cells were stimulated with OVA (100 μg/ml) and CpG ODN 1668 (1 μg/ml) as positive control. Spleen cDCs were stimulated with OVA (100 μg/ml) and CpG ODN 1668 (1 μg/ml) with or without GM-CSF (10 ng/ml).
On Day 0 and Day 14 after the stimulation, dendritic cells (each 5×10^4 cells) (or PBS) which took up the antigen were intraperitoneally administered into CD57BL/6 mice. On Day 21 to Day 25, 1 mg/mouse of OVA was orally administered daily and, on Day 32, total of antigen-specific IpG in serum and antigen-specific IgA in feces were measured by ELISA.

The test system of assay [1] is pulmonary mucosa lamina propria cells. Put plainly: Cytokine production of pulmonary mucosa lamina propria cells after intranasal booster. The format is in vivo, mice. Particulars: 7 days after intranasal OVA, cultured 4 days with OVA 100 μg/ml. As for the experimental part: IFA, IFA+OVA+CpG ODN, IFA+OVA+curdlan, and IFA+OVA+CpG ODN+curdlan were administered to mice by intramuscular injection, respectively. On Day 35, 1 μg/mouse of OVA was administered by intranasal administration to perform booster immunization, and, 7 days later antigen-specific total IgG in the serum and IgA in the bronchoalveolar lavage fluid were measured by ELISA.
In the experiment of 9, 7 days after the intranasal administration of OVA, pulmonary mucosa lamina propria cells were extracted from the mice and cultured in the presence of the antigen (OVA 100 μg/ml) for 4 days and IFN-γ, IL-4, and IL-17 production was measured by ELISA.

In another assay the test system is Dectin-1. Put plainly: Expression of Dectin-1 in spleen-derived dendritic cells with CpG ODN stimulation. It counts as cell-based. The note with it: spleen-derived dendritic cells stimulated with CpG ODN. As for the experimental part:
Next, the expression of Dectin-1, which is a receptor that recognizes β-1,3-glucan, in dendritic cells was measured. The summary and the result of the experiment are illustrated in FIG. 12. As illustrated in the left panel in the figure, it was confirmed that, in spleen-derived dendritic cells, the expression of Dectin-1 is not high, but the expression of Dectin-1 increases more than 3 times by stimulating the cells with CpG ODN. Dectin-1 is known to induce the Th17 response. These indicate the mechanism of the present invention in which the addition of both of CpG ODN and β-1,3-glucan to the adjuvant makes dendritic cells easy to receive the stimulation with β-1,3-glucan and induces the Th17 response.

In the next assay the test system is Raldh2. Put plainly: Induction of Raldh2 mRNA expression in spleen cDCs (RT-PCR). The format is cell-based. The note with it: spleen cDCs stimulated 24 hours. As for the experimental part:
Next, zymosan (component of yeast cell wall of Saccharomyces cerevisiae; 25 ng/ml) and curdlan ((β-1,3-glucan derived from Agrobacterium spp., Alcaligenes spp.; 25 ng/ml) were used as glucan-based compound. Spleen cDCs were stimulated with these substances for 24 hours and, after collecting RNA, the expression of Raldh2 mRNA was measured by RT-PCR.

Turning to CpG ODN 1668, the “antigen-specific IgA in feces” value in the assay on CD57BL/6 mice is on record as “induced little production of IgA”. For the same molecule, the IFN-γ production result in assay [1] is given as “induced”. In addition, in the assay on Dectin-1, the “increase of expression of Dectin-1” value is listed as “more than 3 times”.
For the molecule curdlan, the “expression of Raldh2 mRNA” value in the assay on Raldh2 was “induced the expression of Raldh2”. Moreover, the IFN-γ production entry in assay [1] was “induced”.

B1: granulocyte monocyte colony stimulating factor (protein, UniProt P01587 18-141, looked up)
Granulocyte-macrophage …: APTRSPITVTRPWKHVEAIKEALNLLDDMPVTLNEEVEVVSNEFSFKKLTCVQTRLKIFEQGLRGNFTKLKGALNMTASYYQTYCPPTPETDCETQVTTYADFIDSLKTFLTDIPFECKKPGQK
notes: inducer of expression of Raldh2; added with CpG ODN to stimulate spleen cDCs
For the molecule B1, the “antigen-specific IgA in feces” value in the assay on CD57BL/6 mice was “induced IgA production more than the R2 dendritic cells”. For the same molecule, in the assay on Raldh2, the “expression of Raldh2 mRNA” value was “induced the expression of Raldh2”.
